Measurements from patent publication US7381744B1, “Method of treating osteoporosis comprising vacuolar-type (H+)-ATPase-inhibiting compounds” (The United States of America as represented by the …, priority 1999, dated 2008).

Key:
Experiment in all cases: NCI 60 cell-line screen
Assay type in all cases: cell-based
[1] = system: SF-268; conditions: Homo sapiens, Brain, averaged, quadruplicate testing, read-out: negative log10 GI50 (converted)
From the text: (§1) It is the concentration where 100×(T−To)/To=−50=PG. […] Res., 34, 91-109 (1995).

[2] = system: DU-145; conditions: Homo sapiens, Prostate, averaged, quadruplicate testing, read-out: negative log10 GI50 (converted)
From the text: as §1

[3] = system: NCI-H226; conditions: Homo sapiens, Lung, averaged, quadruplicate testing, read-out: negative log10 GI50 (converted)
From the text: as §1

[4] = system: A498; conditions: Homo sapiens, Kidney, averaged, quadruplicate testing, read-out: negative log10 GI50 (converted)
From the text: as §1

[5] = system: SK-MEL-5; conditions: Homo sapiens, Melanoma, averaged, quadruplicate testing, read-out: negative log10 GI50 (converted)
From the text: as §1

[6] = system: COLO 205; conditions: Homo sapiens, Colon, averaged, quadruplicate testing, read-out: negative log10 GI50 (converted)
From the text: as §1

[7] = system: SK-MEL-28; conditions: Homo sapiens, Melanoma, averaged, quadruplicate testing, read-out: negative log10 GI50 (converted)
From the text: as §1

[8] = system: MDA-N; conditions: Homo sapiens, Breast, averaged, quadruplicate testing, read-out: negative log10 GI50 (converted)
From the text: as §1

[9] = system: HCT-15; conditions: Homo sapiens, Colon, averaged, quadruplicate testing, read-out: negative log10 GI50 (converted)
From the text: as §1

[10] = system: SNB-75; conditions: Homo sapiens, Brain, averaged, quadruplicate testing, read-out: negative log10 GI50 (converted)
From the text: as §1

[11] = system: RPMI-8226; conditions: Homo sapiens, Leukemia, averaged, quadruplicate testing, read-out: negative log10 GI50 (converted)
From the text: as §1

[12] = system: 786-0; conditions: Homo sapiens, Kidney, averaged, quadruplicate testing, read-out: negative log10 GI50 (converted)
From the text: as §1

[13] = system: BT-549; conditions: Homo sapiens, Breast, averaged, quadruplicate testing, read-out: negative log10 GI50 (converted)
From the text: as §1

[14] = system: IGROV1; conditions: Homo sapiens, IGROV-1, Ovary, averaged, quadruplicate testing, read-out: negative log10 GI50 (converted)
From the text: as §1

[15] = system: SF-295; conditions: Homo sapiens, Brain, averaged, quadruplicate testing, read-out: negative log10 GI50 (converted)
From the text: as §1

[16] = system: M14; conditions: Homo sapiens, Melanoma, averaged, quadruplicate testing, read-out: negative log10 GI50 (converted)
From the text: as §1

[17] = system: EKVX; conditions: Homo sapiens, Lung, averaged, quadruplicate testing, read-out: negative log10 GI50 (converted)
From the text: as §1

[18] = system: SR; conditions: Homo sapiens, Leukemia, averaged, quadruplicate testing, read-out: negative log10 GI50 (converted)
From the text: as §1

[19] = system: HT29; conditions: Homo sapiens, HT-29, Colon, averaged, quadruplicate testing, read-out: negative log10 GI50 (converted)
From the text: as §1

[20] = system: T-47D; conditions: Homo sapiens, T47D, Breast, averaged, quadruplicate testing, read-out: negative log10 GI50 (converted)
From the text: as §1

[21] = system: RXF-393; conditions: Homo sapiens, Kidney, averaged, quadruplicate testing, read-out: negative log10 GI50 (converted)
From the text: as §1

[22] = system: UACC-62; conditions: Homo sapiens, Melanoma, averaged, quadruplicate testing, read-out: negative log10 GI50 (converted)
From the text: as §1

[23] = system: CCRF-CEM; conditions: Homo sapiens, Leukemia, averaged, quadruplicate testing, read-out: negative log10 GI50 (converted)
From the text: as §1

[24] = system: HOP-62; conditions: Homo sapiens, Lung, averaged, quadruplicate testing, read-out: negative log10 GI50 (converted)
From the text: as §1

[25] = system: MALME-3M; conditions: Homo sapiens, Melanoma, averaged, quadruplicate testing, read-out: negative log10 GI50 (converted)
From the text: as §1

[26] = system: SF-539; conditions: Homo sapiens, Brain, averaged, quadruplicate testing, read-out: negative log10 GI50 (converted)
From the text: as §1

[27] = system: UACC-257; conditions: Homo sapiens, Melanoma, averaged, quadruplicate testing, read-out: negative log10 GI50 (converted)
From the text: as §1

[28] = system: NCI-H322M; conditions: Homo sapiens, Lung, averaged, quadruplicate testing, read-out: negative log10 GI50 (converted)
From the text: as §1

[29] = system: K-562; conditions: Homo sapiens, K562, Leukemia, averaged, quadruplicate testing, read-out: negative log10 GI50 (converted)
From the text: as §1

[30] = system: SN-12C; conditions: Homo sapiens, SN12C, Kidney, averaged, quadruplicate testing, read-out: negative log10 GI50 (converted)
From the text: as §1

[31] = system: HL-60-TB; conditions: Homo sapiens, HL-60, read-out: negative log10 GI50 (converted)
From the text: as §1

[32] = system: MDA-MB-435; conditions: Homo sapiens, Breast, averaged, quadruplicate testing, read-out: negative log10 GI50 (converted)
From the text: as §1

[33] = system: MDA-MB-231/ATCC; conditions: Homo sapiens, Breast, averaged, quadruplicate testing, read-out: negative log10 GI50 (converted)
From the text: as §1

CC/C=C\C=C/C(=O)N/C=C/CC1CC(O)C(C)C/C=C/Cc2cccc(O)c2C(=O)O1 (stereo not drawn) [salicylihalamide A]
GI50 [1]: 28.2 nM | GI50 [2]: 5.5 nM | GI50 [3]: 1.58 nM | GI50 [4]: 282 nM | GI50 [5]: 1 nM | GI50 [6]: 8.51 nM | GI50 [7]: 100 nM | GI50 [8]: 10 nM | GI50 [9]: 3.63 nM | GI50 [10]: 617 nM | GI50 [11]: 12.9 nM | GI50 [12]: 12 nM | GI50 [13]: 0.501 nM | GI50 [14]: 12.9 nM | GI50 [15]: 1.1 nM | GI50 [16]: 1.2 nM | GI50 [17]: 30.2 nM | GI50 [18]: 3.63 nM | GI50 [19]: 2.88 nM | GI50 [20]: 4.57 nM | GI50 [21]: 0.851 nM | GI50 [22]: 4.17 nM | GI50 [23]: 12.9 nM | GI50 [24]: 4.17 nM | GI50 [25]: 24 nM | GI50 [26]: 12.9 nM | GI50 [27]: 3.39 nM | GI50 [28]: 191 nM | GI50 [29]: 3.89 nM | GI50 [30]: 17 nM | GI50 [31]: 0.912 nM | GI50 [32]: 15.1 nM | GI50 [33]: 120 nM
